For assay [1], the system named is antibodies of patients infected by the AIDS viruses. The following applies: cited from earlier work.
Assay [2] deals with Antibodies to HIV-1. Put plainly: ELISA with peptide or peptide mixture as antigen, identifying HIV-1 positive sera. The format is binding, human. The following applies: single peptide, known HIV-1 positive sera, Table 3. On the procedure:
According to this test a peptide or a peptide mixture of the present invention is adsorbed onto the wells of a microtiter plate. The wells are then treated with sera to be tested. After washing, anti-human IgG labeled with peroxidase is added to the wells. The determination of the peroxidase is performed with a corresponding substrate, e.g. with o-phenylene diamine. Also in this procedure the peroxidase can be exchanged by another label, e.g. by a radioactive or fluorescence label.
(§1) Each well of the microtiter plate is saturated with 100 μl of a solution containing a peptide or mixture of peptides (5 μg/ml) and left overnight. The wells are emptied and washed twice with a washing buffer (Tris, 0.043M; NaCl, 0.5M; thimerosal, 0.01% w/v; Tween 20, 0.05% v/v; pH7.4). The wells are then saturated with 0.35 ml of washing buffer for 1 hr. at 37° C. and washed once with the same buffer. Serum samples to be analyzed are diluted with specimen buffer (washing buffer plus casein, 0.05% w/v). The wells are rinsed with washing buffer prior to the addition of the diluted serum sample (0.1 ml). These are left to incubate for 1 hr. at room temperature. The wells are then emptied, washed twice rapidly and then once for two minutes with washing buffer. […] The wells are then emptied and washed twice rapidly with washing buffer and then five times in which the buffer was in contact with the well 2 minutes per washing. The substrate solution (3,3', 5,5'-tetramethylbenzidine, 8 mg per ml of DMSO) is diluted with 100 volumes 0.1M citrate-acetate buffer, pH 5.6 containing 0.1% v/v of 30% H2 O2 and added to each well (0.1 ml per well). After 10 minutes the contents of each well is treated with 0.1 ml 2N H2 SO4 and the optical density read at 450 nm. All determinations are done in duplicate.

In assay [3] the test system is Antibodies to HIV-1. Briefly: ELISA, relative performance of cyclic and non-cyclic HIV-1 peptides at serum dilutions (optical density). Type of assay: binding, human. As to the method: Table 4 is provided to illustrate the sensitivity of cyclic versus non cyclic peptides in the ELISA test by comparing the results of some sera at various dilutions.
as §1

[4] abbreviates: serum specimen 87V103, dilution 1/50.
Where [5] appears, read: serum specimen 1428, dilution 1/50.
The mark [6] stands for this setting: serum specimen M-5, dilution 1/50.
[7] abbreviates: serum specimen M-5, dilution 1/100.
The mark [8] stands for this setting: serum specimen M-5, dilution 1/200.
The mark [9] stands for this setting: serum specimen M-5, dilution 1/800.
Setting [10] is: serum specimen M-7, dilution 1/50.
[11] abbreviates: serum specimen M-7, dilution 1/100.
The mark [12] stands for this setting: serum specimen M-7, dilution 1/200.
Where [13] appears, read: serum specimen M-7, dilution 1/400.
[14] abbreviates: serum specimen M-7, dilution 1/800.
Setting [15] is: serum specimen M-8, dilution 1/50.
[16] abbreviates: serum specimen M-8, dilution 1/100.
Where [17] appears, read: serum specimen M-8, dilution 1/200.
The mark [18] stands for this setting: serum specimen M-8, dilution 1/400.
The mark [19] stands for this setting: serum specimen M-8, dilution 1/800.
[20] abbreviates: serum specimen M-16, dilution 1/50.
The mark [21] stands for this setting: serum specimen M-16, dilution 1/100.
Setting [22] is: serum specimen M-16, dilution 1/200.
Where [23] appears, read: serum specimen M-16, dilution 1/400.
Where [24] appears, read: serum specimen M-16, dilution 1/800.

The values that follow come from US6218102A, “Synthetic peptides and mixtures thereof for detecting HIV antibodies” (priority 1988, dated 2001).

Read-outs that look alike come from different tables or passages of the source. Peptide text beside a SMILES is read from it.

For the compound “SGKLICTTAVPWNAS [short synthetic peptide covering residues 606 to 620 of gp 41 (HIV-1), Ser. No. 120,027]”, in assay [1] (U.S. Ser. No. 120,027, seronegative specimens correctly identified), the specificity was 63/63. For the same compound, the sensitivity in assay [1] (U.S. Ser. No. 120,027, six of 57 confirmed positive not detected) is recorded as 89%.

As to SGKLIC, the “immunoreactivity with HIV-1 positive sera” value in assay [1] (Gnann et al., 22 HIV-1 positive sera) was “not immunoreactive with any of the 22 HIV-1 positive sera tested”.

As for “12-amino acid sequence (600-611): 12-amino acid sequence 600-611 from gp 41 (HIV-1), Gnann et al.”, the positive sera detected is given as 78 out of 79 in assay [1] (Center for Disease Control, Atlanta) and 22 out of 22 in assay [1] (Gnann et al., Journal of Virology 1987). Besides, the HIV-1-infected patients reactive in assay [1] (J. Infect. Dis. 156, 1987, patients from the United States) is reported as 131 out of 132.

Turning to `CC[C@H](C)[C@@H]1NC(=O)[C@H](CC(C)C)NC(=O)[C@H](CCCCN)NC(=O)CNC(=O)[C@H](CO)NC(=O)[C@@H](NC(=O)CN)CSSC[C@@H](C(=O)N[C@H](C(=O)N[C@H](C(=O)N[C@@H](C)C(=O)N[C@H](C(=O)N2CCC[C@H]2C(=O)N[C@@H](Cc2c[nH]c3ccccc23)C(=O)N[C@@H](CC(N)=O)C(=O)N[C@@H](C)C(=O)N[C@@H](CO)C(=O)O)C(C)C)[C@@H](C)O)[C@@H](C)O)NC1=O` [Peptide 80] (HELM PEPTIDE1{G.C.S.G.K.L.I.C.T.T.A.V.P.W.N.A.S}$PEPTIDE1,PEPTIDE1,2:R3-8:R3$$$V2.0), in the assay with Antibodies to HIV-1 [2], the “% Positive Sera Correctly Identified” value is on record as 100%. The ELISA optical density in the assay with Antibodies to HIV-1 [3] (setting [4]) was 0.003 OPTICAL DENSITY UNITS; in the assay on Antibodies to HIV-1 [3] (setting [5]) it was 1.047 OPTICAL DENSITY UNITS; with Antibodies to HIV-1 [3] (setting [6]), 2.104 OPTICAL DENSITY UNITS; in the assay with Antibodies to HIV-1 [3] (setting [7]), 1.881 OPTICAL DENSITY UNITS; with Antibodies to HIV-1 [3] (setting [8]), 1.599 OPTICAL DENSITY UNITS; with Antibodies to HIV-1 [3] (setting [9]), 0.767 OPTICAL DENSITY UNITS. The ELISA optical density in the assay with Antibodies to HIV-1 [3] (setting [10]) came to 0.191 OPTICAL DENSITY UNITS; with Antibodies to HIV-1 [3] (setting [11]), 0.067 OPTICAL DENSITY UNITS; in the assay with Antibodies to HIV-1 [3] (setting [12]), 0.019 OPTICAL DENSITY UNITS; in the assay with Antibodies to HIV-1 [3] (setting [13]), 0.010 OPTICAL DENSITY UNITS; with Antibodies to HIV-1 [3] (setting [14]), 0.005 OPTICAL DENSITY UNITS; in the assay with Antibodies to HIV-1 [3] (setting [15]) it was 1.026 OPTICAL DENSITY UNITS. The ELISA optical density with Antibodies to HIV-1 [3] (setting [16]) came to 0.737 OPTICAL DENSITY UNITS; with Antibodies to HIV-1 [3] (setting [17]) it was 0.520 OPTICAL DENSITY UNITS; with Antibodies to HIV-1 [3] (setting [18]) it was 0.340 OPTICAL DENSITY UNITS; in the assay on Antibodies to HIV-1 [3] (setting [19]), 0.159 OPTICAL DENSITY UNITS; in the assay on Antibodies to HIV-1 [3] (setting [20]) it was 1.601 OPTICAL DENSITY UNITS; with Antibodies to HIV-1 [3] (setting [21]) it was 1.300 OPTICAL DENSITY UNITS. The ELISA optical density in the assay with Antibodies to HIV-1 [3] (setting [22]) is recorded as 0.903 OPTICAL DENSITY UNITS; in the assay with Antibodies to HIV-1 [3] (setting [23]), 0.583 OPTICAL DENSITY UNITS; with Antibodies to HIV-1 [3] (setting [24]) it was 0.329 OPTICAL DENSITY UNITS.

With “NH2 -GCSGKLICTTAVPWNAS-COOH (H-GCSGKLICTTAVPWNAS-OH; cysteine pairing not given here) [Peptide 77, gp 41 604-620]”, in the assay with Antibodies to HIV-1 [2], the “% Positive Sera Correctly Identified” value worked out at 100%. The ELISA optical density with Antibodies to HIV-1 [3] (setting [4]) was 0.000 OPTICAL DENSITY UNITS; in the assay on Antibodies to HIV-1 [3] (setting [5]), 0.926 OPTICAL DENSITY UNITS; in the assay on Antibodies to HIV-1 [3] (setting [6]), 1.719 OPTICAL DENSITY UNITS; in the assay on Antibodies to HIV-1 [3] (setting [7]) it was 1.459 OPTICAL DENSITY UNITS; with Antibodies to HIV-1 [3] (setting [8]) it was 1.248 OPTICAL DENSITY UNITS; with Antibodies to HIV-1 [3] (serum specimen M-5, dilution 1/400), 0.959 OPTICAL DENSITY UNITS. Moreover, the ELISA optical density in the assay on Antibodies to HIV-1 [3] (setting [9]) stood at 0.057 OPTICAL DENSITY UNITS; with Antibodies to HIV-1 [3] (setting [10]) it was 0.142 OPTICAL DENSITY UNITS; with Antibodies to HIV-1 [3] (setting [11]), 0.025 OPTICAL DENSITY UNITS; in the assay on Antibodies to HIV-1 [3] (setting [12]) it was 0.007 OPTICAL DENSITY UNITS; with Antibodies to HIV-1 [3] (setting [13]) it was 0.001 OPTICAL DENSITY UNITS; in the assay on Antibodies to HIV-1 [3] (setting [14]) it was 0.000 OPTICAL DENSITY UNITS. Moreover, the ELISA optical density is 0.795 OPTICAL DENSITY UNITS in the assay with Antibodies to HIV-1 [3] (setting [15]); 0.507 OPTICAL DENSITY UNITS in the assay with Antibodies to HIV-1 [3] (setting [16]); 0.376 OPTICAL DENSITY UNITS with Antibodies to HIV-1 [3] (setting [17]); 0.209 OPTICAL DENSITY UNITS with Antibodies to HIV-1 [3] (setting [18]); 0.062 OPTICAL DENSITY UNITS in the assay on Antibodies to HIV-1 [3] (setting [19]); 1.219 OPTICAL DENSITY UNITS with Antibodies to HIV-1 [3] (setting [20]). The ELISA optical density was found to be 0.962 OPTICAL DENSITY UNITS in the assay with Antibodies to HIV-1 [3] (setting [21]), 0.613 OPTICAL DENSITY UNITS with Antibodies to HIV-1 [3] (setting [22]), 0.301 OPTICAL DENSITY UNITS in the assay on Antibodies to HIV-1 [3] (setting [23]) and 0.205 OPTICAL DENSITY UNITS in the assay with Antibodies to HIV-1 [3] (setting [24]).
